{"source": "patent US20260258035A1", "about": "“FIVE-MEMBERED AND SIX-MEMBERED NITROGEN-CONTAINING COMPOUND, AND INTERMEDIATE, PREPARATION METHOD AND USE THEREOF” (HANGZHOU SYNRX THERAPEUTICS BIOMEDICAL TECHNOLOGY CO., LTD., priority 2022, published 2026)", "key": {"[1]": {"tested_on": "Human breast squamous carcinoma cells HCC1806", "test": "Cell function assay (In-Cell Western, PAR/pADPr after MMS)", "type": "cell-based", "conditions": "read-out: IC50 (nM) in cell function assay", "summary_of_the_method": "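HCC1806 cells adhered 24 h at 37 °C, 5% CO2, then were pretreated 1 h with compound (30000 nM down to 1 nM, plus 0 nM) or DMSO. MMS was then added at 0.5 mM final for 1 h before In-Cell Western detection of PAR/pADPr.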"}, "PXR": {"biological_target": "T1, PXR (Homo sapiens, UniProt O75469)", "T1 construct": "host or cells: DPX2 (HepG2)", "T1 sequence (O75469 1-434)": "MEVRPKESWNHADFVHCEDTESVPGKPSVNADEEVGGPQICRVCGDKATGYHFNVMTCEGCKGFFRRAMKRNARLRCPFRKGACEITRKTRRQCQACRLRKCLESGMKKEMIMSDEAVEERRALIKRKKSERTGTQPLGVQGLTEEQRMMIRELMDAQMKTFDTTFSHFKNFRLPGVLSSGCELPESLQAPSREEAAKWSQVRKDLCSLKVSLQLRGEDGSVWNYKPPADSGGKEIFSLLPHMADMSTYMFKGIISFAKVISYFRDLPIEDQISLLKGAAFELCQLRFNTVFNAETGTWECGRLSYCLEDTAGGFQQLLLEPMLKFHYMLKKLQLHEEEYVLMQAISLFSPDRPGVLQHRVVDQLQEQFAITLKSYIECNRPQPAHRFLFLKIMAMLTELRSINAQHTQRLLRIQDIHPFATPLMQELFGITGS", "test": "PXR assay (DPX2 luciferase reporter cells)", "type": "cell-based", "conditions": "24 h; for PXR Activation @30 uM (% Ctrl): positive control rifampicin", "summary_of_the_method": "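DPX2 cells (HepG2 stably carrying human PXR plus luciferase reporter) dosed 24 h with compound at 10, 1, 0.1 μM or 30–0.1 μM for EC50, 0.1% DMSO. Viability by CellTiter-Fluor (ex 400/em 505 nm), then ONE-Glo luciferase luminescence for PXR activation.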"}, "PARG": {"biological_target": "PARG (Homo sapiens, UniProt Q86W56)", "sequence (Q86W56 whole entry)": "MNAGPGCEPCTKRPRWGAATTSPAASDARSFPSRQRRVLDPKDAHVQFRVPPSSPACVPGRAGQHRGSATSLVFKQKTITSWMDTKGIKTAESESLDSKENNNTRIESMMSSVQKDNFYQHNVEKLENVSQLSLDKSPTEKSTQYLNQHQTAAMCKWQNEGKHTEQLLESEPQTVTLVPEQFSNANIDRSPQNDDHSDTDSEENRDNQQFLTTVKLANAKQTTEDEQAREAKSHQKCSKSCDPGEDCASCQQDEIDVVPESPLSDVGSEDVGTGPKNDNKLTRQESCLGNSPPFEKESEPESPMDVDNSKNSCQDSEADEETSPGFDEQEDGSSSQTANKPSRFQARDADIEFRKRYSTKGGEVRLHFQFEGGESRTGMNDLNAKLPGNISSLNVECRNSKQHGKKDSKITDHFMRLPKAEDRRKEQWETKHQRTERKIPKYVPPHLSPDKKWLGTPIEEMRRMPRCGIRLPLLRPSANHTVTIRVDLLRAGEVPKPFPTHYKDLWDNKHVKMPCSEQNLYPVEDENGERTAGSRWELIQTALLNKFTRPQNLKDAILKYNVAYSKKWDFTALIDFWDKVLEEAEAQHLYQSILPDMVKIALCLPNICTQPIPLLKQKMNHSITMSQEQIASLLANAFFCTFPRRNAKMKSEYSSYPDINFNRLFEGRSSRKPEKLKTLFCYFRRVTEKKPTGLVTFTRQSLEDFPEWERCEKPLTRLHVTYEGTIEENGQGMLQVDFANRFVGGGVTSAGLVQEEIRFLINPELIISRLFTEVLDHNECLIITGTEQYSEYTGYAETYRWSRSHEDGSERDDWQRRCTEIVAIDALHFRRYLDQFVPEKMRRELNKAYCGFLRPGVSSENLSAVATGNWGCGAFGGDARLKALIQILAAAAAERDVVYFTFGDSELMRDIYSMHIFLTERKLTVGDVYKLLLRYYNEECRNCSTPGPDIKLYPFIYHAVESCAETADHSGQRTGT", "test": "Biochemical assay (PARG, TFMU-ADPr substrate)"}, "[2]": {"conditions": "HCC1806, In-Cell Western, MMS treatment"}, "[3]": {"conditions": "HCC1806, compound 1 h then 0.5 mM MMS 1 h, PAR/pADPr antibody, In-Cell Western"}, "[4]": {"conditions": "4 nM PARG, 66.2 uM TFMU-ADPr, 3 min at room temperature"}}, "note": "Like-named read-outs stand apart in the source and are kept apart here.", "data": [{"compound": "CC(C)C(=O)N1CCN(c2cc(S(=O)(=O)NC3(C#N)CC3)cn3c(-c4nnc(C(F)F)s4)ncc23)CC1", "note": "[Example 32, N-(1-cyanocyclopropyl)-3-(5-(difluoromethyl)-1,3,4-thiadiazol-2-yl)-8-(4-isobutyrylpiperazin-1-yl)imidazo[1,5-a]pyridine-6-sulfonamide]", "values": [{"measurement": "IC50", "setting": "[1]; [2]", "value": 10.8, "unit": "nM"}, {"measurement": "IC50", "setting": "[1]; [3]", "value": "< 100", "unit": "nM"}, {"measurement": "PXR Activation @30 uM (Fold)", "setting": "PXR", "value": 2.7, "unit": "Fold"}, {"measurement": "PXR Activation @30 uM (% Ctrl)", "setting": "PXR", "value": 19, "unit": "% Ctrl"}, {"measurement": "IC50", "setting": "PARG; [4]", "value": "< 100", "unit": "nM"}, {"measurement": "IC50", "setting": "PARG; PARG, TFMU-ADPr substrate", "value": 0.77, "unit": "nM"}]}, {"compound": "CC(C)C(=O)N1CCN(c2cc(S(=O)(=O)NC3(C#N)CC3)cn3c(-c4nnc(C(F)(F)F)s4)ncc23)CC1", "note": "[Example 167, N-(1-cyanocyclopropyl)-8-(4-isobutyrylpiperazin-1-yl)-3-(5-(trifluoromethyl)-1,3,4-thiadiazol-2-yl)imidazo[1,5-a]pyridine-6-sulfonamide]", "values": [{"measurement": "IC50", "setting": "[1]; [2]", "value": 6.34, "unit": "nM"}, {"measurement": "IC50", "setting": "[1]; [3]", "value": "< 100", "unit": "nM"}, {"measurement": "PXR Activation @30 uM (Fold)", "setting": "PXR", "value": 5.0, "unit": "Fold"}, {"measurement": "PXR Activation @30 uM (% Ctrl)", "setting": "PXR", "value": 34, "unit": "% Ctrl"}, {"measurement": "IC50", "setting": "PARG; [4]", "value": "< 100", "unit": "nM"}, {"measurement": "IC50", "setting": "PARG; PARG, TFMU-ADPr substrate", "value": 16.6, "unit": "nM"}]}]}
